Laboratory results reported in patent publication US11192889B2, “Tetrahydronaphthyridinepentanamide integrin antagonists” (The Rockefeller University, priority 2016, dated 2021).
Where “and” joins values, the source holds several entries; their conditions need not be identical. Identical values can stand only once.

Columns and labels:
HEK-293-αVβ3 cells [1] = molecular target: T1, HEK-293-αVβ3 cells (Homo sapiens, UniProt P05106+P06756); experiment: AP5 Binding Assay; format: cell-based; details: for activation at 10 µM: read-out: AP5 expression induced at the highest concentration; for EC50: concentration inducing 50% of the AP5 expression induced by 1 μM cilengitide
Text: (§1) HEK-293 Cells Expressing αVβ3. HEK-293 cells were transfected using lipofectamine 2000 (Invitrogen #11668030) with the cDNA for αV using the pEF1/V5-His A vector and the cDNA for β3 using the vector pcDNA3.1. Cells expressing αVβ3 were identified by their reaction with murine monoclonal antibodies (mAbs) LM609 and 7E3, and stable cell lines were established by repetitive sorting using LM609. […] HEK-293-αVβ3 cells for assays are counted in an automated cell counter (ADVIA 120) and adjusted to values appropriate for each assay.
AP5 Binding Assay. HEK-293-αVβ3 cells are harvested using 0.05% trypsin 0.5 mM EDTA, washed with HBMT once, and resuspended in HBMT containing 1 mM Mg2+ and 2 mM Ca2+. The cells are counted and adjusted to 0.5×10^6 cells per sample. The compound to be tested and fluorescently labeled mAb AP5 (either Alexa 488 or Alexa 674; 10 μg/mL) are added and incubated for 30 minutes at 37° C. The cells are then washed and analyzed by flow cytometry (BD FACSCalibur) at the appropriate wavelength for detecting the AP5 fluorophore. In each assay, cilengitide (1 μM) and 10 mM EDTA are included as positive controls and untreated cells are used as the negative control. The concentration of the test compound required to induce the expression of 50% of the AP5 expression induced by cilengitide is calculated and defined as the EC50. The EC50 for cilengitide was determined based on the expression induced by EDTA.

HEK-293-αVβ3 cells [2] = molecular target: T1, HEK-293-αVβ3 cells; experiment: αVβ3 Cell Adhesion to Fibrinogen Assay; format: cell-based; set-up: IC50; other: dose reducing by 50% the adhesion of HEK-293-αVβ3 cells to fibrinogen; untreated cells 100% adhesion, 10 mM EDTA 0%; details: dose reducing by 50% the adhesion of HEK-293-αVβ3 cells to fibrinogen; separate determinations listed
Text: as §1
αVβ3 Cell Adhesion to Fibrinogen Assay. Polystyrene 96-well microtiter plates (Costar, 3590) are precoated with 3.5 μg/mL of purified fibrinogen (Enzyme Research Laboratories) in 0.15 M NaCl, 0.01 M Tris/HCL, pH 7.4 for 1 hour at 37° C. The wells are then washed and incubated with HEPES-Buffered Modified Tyrode's solution (HBMT; 0.128 M NaCl, 10 mM HEPES, 12 mM NaHCO3, 0.4 mM NaH2PO4, 2.7 mM KCl, 0.35% bovine serum albumin (Fisher), 0.1% glucose, pH 7.4) for 1 hour at room temperature or overnight at 4° C. Wells are washed with HBMT containing 1 mM Mg2+ and 2 mM Ca2+ and then 50 μL of HEK-293-αVβ3 cells that have been pretreated with the compound to be tested for 20 minutes at room temperature are added to each well at a concentration of 3,000 cells/μL. After 30-32 minutes the wells are washed with HBMT containing Ca2+ and Mg2+ three times and then the adherent cells are lysed and the acid phosphatase activity that is released is measured by: 1. adding phosphatase substrate (Sigma EC 224-246-5) at 2 mg/mL in 0.1 M Na citrate, pH 5.6, 0.1% triton X-100 for 1 hour at room temperature; 2. stopping the reaction by adding 50 μL of 2 M NaOH; and 3. analyzing the samples in a spectrophotometer at 405 nm. In each assay, 10 mM EDTA is used as a positive control and untreated cells are used as a negative control. The IC50 is the dose of test compound that reduces by 50% the adhesion of the HEK-293-αVβ3 cells, taking the results with untreated cells as 100% and the results in the presence of EDTA as 0%. In some instances more than one IC50 determination was made, in which case, results of separate determinations are reported. IC50's were not determined for all compounds in the table; for some of these test compounds the inhibition at specific doses are reported. In some instances, the test compound produced a greater reduction than 10 mM EDTA, and these are shown as negative numbers.

[3] = @10 μM, relative to AP5 expression induced by cilengitide

T1 sequence (P05106 whole entry): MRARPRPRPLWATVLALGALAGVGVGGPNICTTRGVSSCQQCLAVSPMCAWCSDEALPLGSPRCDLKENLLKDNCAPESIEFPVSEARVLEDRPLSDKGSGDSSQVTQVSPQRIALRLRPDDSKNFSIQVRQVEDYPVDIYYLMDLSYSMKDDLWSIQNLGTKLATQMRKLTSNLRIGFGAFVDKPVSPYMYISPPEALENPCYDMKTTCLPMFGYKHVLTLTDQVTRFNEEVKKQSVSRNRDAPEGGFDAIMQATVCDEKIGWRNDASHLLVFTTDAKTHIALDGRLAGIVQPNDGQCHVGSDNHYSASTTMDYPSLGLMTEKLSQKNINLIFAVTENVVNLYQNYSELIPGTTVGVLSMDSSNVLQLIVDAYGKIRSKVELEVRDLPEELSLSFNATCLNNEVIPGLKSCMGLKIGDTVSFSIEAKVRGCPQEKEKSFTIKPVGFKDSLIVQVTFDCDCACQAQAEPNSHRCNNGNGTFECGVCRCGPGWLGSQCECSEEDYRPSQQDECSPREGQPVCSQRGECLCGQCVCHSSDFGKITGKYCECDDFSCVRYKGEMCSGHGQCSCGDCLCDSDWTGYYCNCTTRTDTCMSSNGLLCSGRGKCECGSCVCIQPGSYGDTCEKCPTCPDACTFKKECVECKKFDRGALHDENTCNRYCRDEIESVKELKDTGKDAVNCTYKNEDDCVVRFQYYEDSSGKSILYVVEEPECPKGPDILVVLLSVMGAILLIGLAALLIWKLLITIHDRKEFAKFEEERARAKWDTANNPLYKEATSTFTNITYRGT
T1 sequence (P06756 whole entry): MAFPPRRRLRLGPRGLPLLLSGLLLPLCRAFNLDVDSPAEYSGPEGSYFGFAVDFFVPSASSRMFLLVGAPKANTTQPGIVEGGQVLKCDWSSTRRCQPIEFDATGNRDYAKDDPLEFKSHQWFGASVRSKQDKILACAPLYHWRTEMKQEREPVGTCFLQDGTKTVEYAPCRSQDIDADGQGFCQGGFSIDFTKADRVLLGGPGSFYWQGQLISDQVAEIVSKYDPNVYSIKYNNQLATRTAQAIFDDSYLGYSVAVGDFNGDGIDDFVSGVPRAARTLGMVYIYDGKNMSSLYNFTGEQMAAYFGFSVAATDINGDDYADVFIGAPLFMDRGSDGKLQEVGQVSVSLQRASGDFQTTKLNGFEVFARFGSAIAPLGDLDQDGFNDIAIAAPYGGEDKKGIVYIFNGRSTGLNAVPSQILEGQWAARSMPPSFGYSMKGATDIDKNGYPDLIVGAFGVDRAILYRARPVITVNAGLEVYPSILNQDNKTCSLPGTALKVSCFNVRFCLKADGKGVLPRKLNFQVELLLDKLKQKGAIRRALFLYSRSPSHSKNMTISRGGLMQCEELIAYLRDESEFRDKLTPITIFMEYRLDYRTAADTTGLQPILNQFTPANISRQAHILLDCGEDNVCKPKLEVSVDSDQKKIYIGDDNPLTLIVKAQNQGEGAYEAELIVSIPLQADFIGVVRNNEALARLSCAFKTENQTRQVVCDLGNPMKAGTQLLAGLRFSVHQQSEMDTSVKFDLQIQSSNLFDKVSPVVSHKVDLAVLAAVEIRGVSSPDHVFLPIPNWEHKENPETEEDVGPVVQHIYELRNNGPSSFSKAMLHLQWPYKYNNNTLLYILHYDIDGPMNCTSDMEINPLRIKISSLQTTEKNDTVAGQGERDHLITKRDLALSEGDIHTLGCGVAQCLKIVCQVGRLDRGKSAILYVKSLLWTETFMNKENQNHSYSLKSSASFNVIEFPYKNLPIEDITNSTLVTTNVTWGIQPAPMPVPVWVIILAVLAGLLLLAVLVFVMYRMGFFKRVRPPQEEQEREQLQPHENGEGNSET

activation at 10 µM (HEK-293-αVβ3 cells [1]; [3]) [%]	EC50 (HEK-293-αVβ3 cells [1]) [nM]	IC50 (HEK-293-αVβ3 cells [2])	AP5 expression induced at the highest concentration (HEK-293-αVβ3 cells [1]; [3]) [%]	SMILES
5	> 10000	151 nM	–	O=C(CCCCc1ccc2c(n1)NCCC2)NCC[C@@H](Nc1nc2ccccc2o1)C(=O)O [Example 85, (R)-2-(benzo[d]oxazol-2-ylamino)-4-(5-(5,6,7,8-tetrahydro-1,8-naphthyridin-2-yl)pentanamido)butanoic acid]
16	> 10000	491 nM	–	COc1ccccc1COC(=O)NC(CCNC(=O)CCCCc1ccc2c(n1)NCCC2)C(=O)O (centres unmarked) [Example 63]
–	> 10000	201 nM	–	O=C(CCCCc1ccc2c(n1)NCCC2)NCC[C@H](Nc1ncc(-c2ccccc2)cn1)C(=O)O [Example 92, (2S)-2-[(5-phenylpyrimidin-2-yl)amino]-4-[5-(5,6,7,8-tetrahydro-1,8-naphthyridin-2-yl)pentanoylamino]butanoic acid]
7	> 10000	211 nM	–	O=C(CCCCc1ccc2c(n1)NCCC2)NCCC(Nc1nc2ccccc2o1)C(=O)O (centres unmarked) [Example 69, 2-(1,3-benzoxazol-2-ylamino)-4-[5-(5,6,7,8-tetrahydro-1,8-naphthyridin-2-yl)pentanoylamino]butanoic acid]
4	> 10000	115 nM	–	O=C(CCCCc1ccc2c(n1)NCCC2)NCCC(NC(=O)c1nc2ccccc2o1)C(=O)O (centres unmarked) [Example 74, 2-(1,3-benzoxazole-2-carbonylamino)-4-[5-(5,6,7,8-tetrahydro-1,8-naphthyridin-2-yl)pentanoylamino]butanoic acid]
21	> 10000	248 nM and 359 nM	–	O=C(CCCCc1ccc2c(n1)NCCC2)NCCC(NC(=O)OCC1CCC(F)(F)CC1)C(=O)O (centres unmarked) [Example 64]
15	> 10000	407 nM and 570 nM and 337 nM and 428 nM	–	O=C(CCCCc1ccc2c(n1)NCCC2)NCCC(NC(=O)OCc1ccccc1)C(=O)O (centres unmarked) [Example 7, 2-(Benzyloxycarbonylamino)-4-[5-(5,6,7,8-tetrahydro-1,8-naphthyridin-2-yl)pentanoylamino]butanoic acid]
–	> 10000	228 nM	11	O=C(CCCCc1ccc2c(n1)NCCC2)NCCC(C(=O)O)c1cnc2ccccc2c1 (single isomer, unassigned) [Example 90, 2-(3-quinolyl)-4-[5-(5,6,7,8-tetrahydro-1,8-naphthyridin-2-yl)pentanoylamino]butanoic acid]
32	> 10000	< 100 nM	–	O=C(CCCCc1ccc2c(n1)NCCC2)NCCC(NC(=O)CO)C(=O)O (centres unmarked) [Example 34]
8	> 10000	2020 nM	–	CC(C)Cc1cn(C(CCNC(=O)CCCCc2ccc3c(n2)NCCC3)C(=O)O)nn1 (centres unmarked) [Example 77, 2-(4-isobutyltriazol-1-yl)-4-[5-(5,6,7,8-tetrahydro-1,8-naphthyridin-2-yl)pentanoylamino]butanoic acid]
12	> 10000	533 nM	–	O=C(CCCCc1ccc2c(n1)NCCC2)NCCC(NC(=O)OCc1cccc(F)c1)C(=O)O (centres unmarked) [Example 66]
5	> 10000	225 nM and 773 nM and 952 nM and 537 nM and 612 nM and 683 nM	–	O=C(CCCCc1ccc2c(n1)NCCC2)NCC[C@@H](NC(=O)OCc1ccccc1)C(=O)O [Example 4, (2R)-2-(Benzyloxycarbonylamino)-4-[5-(5,6,7,8-tetrahydro-1,8-naphthyridin-2-yl)pentanoylamino]butanoic acid]
9	> 10000	1140 nM	–	COc1cccc(C(=O)NC(CCNC(=O)CCCCc2ccc3c(n2)NCCC3)C(=O)O)n1 (centres unmarked) [Example 71, 2-[(6-methoxypyridine-2-carbonyl)amino]-4-[5-(5,6,7,8-tetrahydro-1,8-naphthyridin-2-yl)pentanoylamino]butanoic acid]
